From publication PMC4594923, “Food Polyphenols Fail to Cause a Biologically Relevant Reduction of COX-2 Activity” (PLoS ONE, 2015)

Assays:
[1] = test system: COX–2 protein; assay: COX–2 expression in HCA–7 cells (Western Blot); assay type: cell-based, human; conditions: 24 h, vs. control
Experimental: HCA–7 cells were incubated with sub-cytotoxic concentrations of the polyphenols dissolved in Tris buffered DMEM medium. Cytotoxicity of the polyphenols was evaluated by the lactate dehydrogenase leakage test (Cyto-Tox-ONE, Promega Mannheim, Germany). After 24 h the supernatant was collected for LC-MS analysis and the cells were harvested to analyze the COX–2 expression by Western Blotting.

[2] = target: T1, COX–2 (Homo sapiens, UniProt P35354); assay: PGE2 formation in LPS stimulated primary human monocytes (24 h, LC-MS); assay type: cell-based; conditions: IC50 (95% CI), primary monocytes, LPS stimulated, calculated based on PGE2, n = 3, 24 h
T1 sequence (P35354 18-604): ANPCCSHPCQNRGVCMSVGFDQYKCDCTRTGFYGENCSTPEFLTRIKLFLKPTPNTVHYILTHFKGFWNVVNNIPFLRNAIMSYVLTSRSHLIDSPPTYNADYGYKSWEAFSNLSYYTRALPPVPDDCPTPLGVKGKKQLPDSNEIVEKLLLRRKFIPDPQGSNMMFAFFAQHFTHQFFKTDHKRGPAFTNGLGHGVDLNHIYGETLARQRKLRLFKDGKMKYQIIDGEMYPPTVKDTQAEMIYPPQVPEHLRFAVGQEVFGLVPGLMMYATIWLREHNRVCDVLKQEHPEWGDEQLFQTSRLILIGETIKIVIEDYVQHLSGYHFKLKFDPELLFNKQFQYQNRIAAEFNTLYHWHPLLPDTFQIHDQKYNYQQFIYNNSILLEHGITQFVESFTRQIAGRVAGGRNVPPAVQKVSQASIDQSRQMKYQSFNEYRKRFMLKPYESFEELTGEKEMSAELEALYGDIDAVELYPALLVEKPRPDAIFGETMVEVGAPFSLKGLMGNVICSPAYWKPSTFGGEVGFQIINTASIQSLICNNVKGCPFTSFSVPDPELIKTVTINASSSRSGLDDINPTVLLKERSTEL
Experimental: (§1) The in vitro assays were performed as described [6, 16, 18] and COX metabolites were quantified by LC-MS [18].
(§2) Primary human monocytes were freshly isolated from human blood. Blood was collected from healthy human subjects after written informed consent was obtained. […] After 24 h, the supernatant was sampled for LC-MS and cells were collected for the COX–2 expression analysis by Western Blotting.
(§3) GraphPad Prism 5.0 (GraphPad Software, San Diego, USA) was used for data analysis, the fitting of dose response curves and calculation of the IC50 values. Statistical differences were determined by Dunnetts test (LPS vs. other groups).

[3] = test system: arachidonic acid (AA) cascade; assay: plasma oxylipin/PG levels in LPS induced sepsis in mice; assay type: in vivo, C57BL/6N mice; conditions: plasma 24 h after LPS treatment; LPS +; mean;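 also: male C57BL/6N mice given LPS, plasma oxylipins quantified by LC-MS after solid-phase extraction, pretreatment or vehicle given intraperitoneally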
Text: Twelve week old male C57BL/6N mice (Charles River, Sulzfeld, Germany) were used for all experiments. C57BL/6 male mice (H2^b, 11–13 weeks of age) were obtained from Charles River (Sulzfeld, Germany). Animals were cared for in accordance with the institution’s guidelines for experimental animals and with the guidelines of the American Physiological Society. […] Mice were monitored closely and if they appeared compromised (i.e. inactivity, no intake of food or water) after compound or LPS injection the experiment was terminated.
Oxylipin levels were analyzed in plasma and tissues by LC-MS following SPE extraction of 200 μl plasma or tissue homogenate (50 mg) on Chromabond C18 ec cartridges (Machery-Nagel, Düren, Germany) [19].
as §3

[4] = clinical chemistry in plasma (urea, creatinine, AST, ALT, LDH) in LPS induced sepsis in mice; assay type: in vivo, C57BL/6N mice; conditions: compound i. p. 100 mg/kg bw 2 h before LPS, 24 h after LPS
[5] = test system: COX–2; conditions: cited from earlier work
[6] = test system: COX–2 protein; conditions: cited from earlier work
[7] = target: T2, ovine recombinant COX–1 (Ovis aries, UniProt P05979); assay: cell-free COX–1 enzyme assay (PGE2 formation, LC-MS); assay type: biochemical; set-up: purchased Cayman Chemicals/ Biomol, Hamburg, Germany
T2 sequence (P05979 25-600): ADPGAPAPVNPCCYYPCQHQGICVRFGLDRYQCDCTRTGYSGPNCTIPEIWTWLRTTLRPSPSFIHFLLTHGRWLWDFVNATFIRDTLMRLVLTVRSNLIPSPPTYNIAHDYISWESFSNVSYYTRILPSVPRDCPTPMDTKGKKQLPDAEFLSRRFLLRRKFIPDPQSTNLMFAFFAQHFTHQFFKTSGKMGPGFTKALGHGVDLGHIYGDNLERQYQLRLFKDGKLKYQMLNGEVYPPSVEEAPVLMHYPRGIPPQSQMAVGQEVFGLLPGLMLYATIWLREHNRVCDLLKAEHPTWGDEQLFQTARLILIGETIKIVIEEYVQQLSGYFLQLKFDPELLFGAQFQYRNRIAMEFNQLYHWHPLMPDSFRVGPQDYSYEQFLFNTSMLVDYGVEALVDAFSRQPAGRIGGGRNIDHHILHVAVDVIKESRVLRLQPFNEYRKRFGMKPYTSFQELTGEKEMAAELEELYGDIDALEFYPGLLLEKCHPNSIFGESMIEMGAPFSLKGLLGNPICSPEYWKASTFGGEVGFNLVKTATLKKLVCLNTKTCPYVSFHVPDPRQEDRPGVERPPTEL
Experimental: as §1, §2, §3

Structure (SMILES): O=c1c(-c2ccc(O)cc2)coc2cc(O)cc(O)c12 [Genistein, genistein]
- COX-2 Expression, HCA-7 cell line [1]: 100 μM:COX–2 ↓
- COX-2 Expression, HCA-7 cell line ([1]; listed as genistein): decreased COX–2 expression
- IC50 [2]: 7.4 µM
- 1a,1b-dihomo-PGF2α concentration in plasma [3]: 0.33 nM
- 4,5-DiHDPE concentration in plasma [3]: 10 nM
- 4-HDHA concentration in plasma [3]: 2.0 nM
- 5(6)-EpETrE concentration in plasma [3]: 8.9 nM
- 5,6-DiHETrE concentration in plasma [3]: 0.72 nM
- 5-HEPE concentration in plasma [3]: 0.33 nM
- 5-HETE concentration in plasma [3]: 3.1 nM
- 5-iPF2α concentration in plasma [3]: < 0.50 nM
- 5-oxo-ETE concentration in plasma [3]: 1.2 nM
- 6-keto-PGF1α concentration in plasma [3]: 2.4 nM
- 7,8-DiHDPE concentration in plasma [3]: 1.1 nM
- 7-HDHA concentration in plasma [3]: 0.64 nM
- 8(9)-EpETrE concentration in plasma [3]: 2.3 nM
- 8,9-DiHETrE concentration in plasma [3]: 2.1 nM
- 8-HDHA concentration in plasma [3]: 4.0 nM
- 8-HEPE concentration in plasma [3]: 0.72 nM
- 8-HETE concentration in plasma [3]: 9.6 nM
- 8-iPF2a concentration in plasma [3]: 0.24 nM
- 9(10)-EpODE concentration in plasma [3]: 3.5 nM
- 9(10)-EpOME concentration in plasma [3]: 37 nM
- 9(10)-Epoxystearic acid concentration in plasma [3]: 31 nM
- 9,10,13-TriHOME concentration in plasma [3]: 1.5 nM
- 9,10-DiHODE concentration in plasma [3]: 4.8 nM
- 9,10-DiHOME concentration in plasma [3]: 63 nM
- 9,10-Dihydroxystearic acid concentration in plasma [3]: 15 nM
- 9,12,13-TriHOME concentration in plasma [3]: 9.6 nM
- 9-HODE concentration in plasma [3]: 96 nM
- 9-HOTrE concentration in plasma [3]: 4.1 nM
- 9-oxo-ODE concentration in plasma [3]: 16 nM
- 10(11)-EpDPE concentration in plasma [3]: 3.0 nM
- 10,11-DiHDPE concentration in plasma [3]: 0.90 nM
- 10-HDHA concentration in plasma [3]: 16 nM
- 11(12)-EpETrE concentration in plasma [3]: 2.7 nM
- 11,12-DiHETE concentration in plasma [3]: 0.19 nM
- 11,12-DiHETrE concentration in plasma [3]: 1.9 nM
- 11-HDHA concentration in plasma [3]: 1.2 nM
- 11-HETE concentration in plasma [3]: 2.7 nM
- 12(13)-EpODE concentration in plasma [3]: 1.8 nM
- 12(13)-EpOME concentration in plasma [3]: 34 nM
- 12,13-DiHODE concentration in plasma [3]: 4.7 nM
- 12,13-DiHOME concentration in plasma [3]: 214 nM
- 12-HEPE concentration in plasma [3]: 140 nM
- 12-HETE concentration in plasma [3]: 1200 nM
- 13(14)-EpDPE concentration in plasma [3]: 2.0 nM
- 13,14-DiHDPE concentration in plasma [3]: 0.96 nM
- 13,14-dihydro-15-keto-PGE1 concentration in plasma [3]: 0.18 nM
- 13,14dihydro-15-keto-PGF2α concentration in plasma [3]: 0.43 nM
- 13-HDHA concentration in plasma [3]: 2.8 nM
- 13-HODE concentration in plasma [3]: 240 nM
- 13-HOTrE concentration in plasma [3]: 15 nM
- 13-oxo-ODE concentration in plasma [3]: 2.7 nM
- 14(15)-EpETE concentration in plasma [3]: 0.21 nM
- 14(15)-EpETrE concentration in plasma [3]: 2.0 nM
- 14,15-DiHETE concentration in plasma [3]: 0.41 nM
- 14,15-DiHETrE concentration in plasma [3]: 4.3 nM
- 14-HDHA concentration in plasma [3]: 450 nM
- 15(16)-EpODE concentration in plasma [3]: 2.0 nM
- 15(S)-HETrE concentration in plasma [3]: 2.7 nM
- 15,16-DiHODE concentration in plasma [3]: 40 nM
- 15-HEPE concentration in plasma [3]: 0.96 nM
- 15-HETE concentration in plasma [3]: 5.1 nM
- 15-oxo-ETE concentration in plasma [3]: 0.42 nM
- 16(17)-EpDPE concentration in plasma [3]: 2.1 nM
- 16,17-DiHDPE concentration in plasma [3]: 2.2 nM
- 16-HDHA concentration in plasma [3]: 1.9 nM
- 17(18)-EpETE concentration in plasma [3]: 1.2 nM
- 17,18-DiHETE concentration in plasma [3]: 2.3 nM
- 17-HDHA concentration in plasma [3]: 21 nM
- 18-HEPE concentration in plasma [3]: 0.45 nM
- 19(20)-EpDPE concentration in plasma [3]: 14 nM
- 19,20-DiHDPE concentration in plasma [3]: 19 nM
- 20-HDHA concentration in plasma [3]: 3.7 nM
- 20-HEPE concentration in plasma [3]: 2.8 nM
- 20-HETE concentration in plasma [3]: 1.7 nM
- EKODE concentration in plasma [3]: 9.9 nM
- PGD2 concentration in plasma [3]: < 0.50 nM
- PGE2 concentration in plasma [3]: 0.95 nM
- PGF1α concentration in plasma [3]: 0.13 nM
- PGF2α concentration in plasma [3]: 0.44 nM
- TXB2 concentration in plasma [3]: 2.6 nM
- plasma ALT activity [4]: elevated
- plasma AST activity [4]: elevated
- PGE2 formation / levels, RAW 264.7 cells [5]: reduced PGE2 formation
- COX–2 (protein) levels, RAW 264.7 cells [6]: reduced
- effect on COX–1 dependent PGE2 formation, cell-free enzyme assay [7]: no effect
- IC50 (95% CI), COX–1 enzyme assay ([7]; calculated based on PGE2, n = 3): no effect (up to 30 μM)
